# Measured values as given in patent US4360509A, “Vivo radioassay process” (priority 1979, dated 1982).
# “Also recorded” adds a separate entry of the source.
# Experiments:
# [1] = Tissue distribution of In-111 in goats with bacterial abscesses (radioactivity per gram of tissue, scintillation counter); details: goat
# Method: The distribution of In-111 was determined in the different organs and tissues of three goats. One goat was injected with In-111-oxinate labeled autologous granulocytes, one with plain In-111-oxinate and one with plain In-111-chloride. The injections with the isotope formulations took place 2 days before the animals were sacrificed and dissected. Pieces of abscess, organs and tissues were sampled, weighed and the radioactivity was measured in a scintillation counter. The radioactivities per gram of tissue were determined.
# The tissue distribution of In-111 in the goat was determined to show the distribution of radioactivity among the organs.
# In order to illustrate the process of the invention a goat with adjoining bacterial abscesses of 2 months and three days old was injected with In-111-oxinate (ca. 1 mCi). The goat was imaged by gamma camera the next day. […] The goat was sacrificed and the distribution of radioactivity between the different tissues and organs determined.
# The goat that was intravenously injected with In-111-chloride was dissected two days after the injection, and the distribution of radioactivity among the different tissues and organs determined.
# blood cells = assay: Washing of blood cells with PBS (binding of radioactivity to blood cells after injection); details: goat blood cells
# [2] = Method: The clearance of In-111 from the blood of the goats was followed after intravenous injection of In-111 in three different formulations, namely In-111-chloride, In-111-oxinate and In-111-oxinate labeled granulocytes, respectively, in order to determine the biological half life for each of these different formulations. After injection, 10 ml blood samples were taken at intervals. All blood samples were subjected to differential centrifugation in order to determine whether the radioactivity was localized in the plasma, platelets, red cell fraction or leukocytes. Platelet rich plasma (PRP) was prepared by centrifugation of heparinised blood at 200 g during 15 minutes. After sampling of the PRP (1 ml) the residue was centrifuged at 1600 g for 10 minutes. 1 ml samples were taken from the plasma layer (platelet poor plasma=PPP), from the interface between plasma and red cells (leukocytes) and from the red cell fraction. The radioactivities were determined and clearance was determined corrected for physical decay.
# The clearance of In-111 from the blood of goats was followed after intravenous injection of In-111 in three different goats and formulations,namely, In-111-chloride, In-111-oxinate and In-111-oxinate labeled granulocytes, respectively, in order to determine the biological half-life of In-111.
# The clearance of In-111 in a goat which was injected with In-111-oxinate labeled granulocytes was also studied.
# bacterial abscesses = assay: Gamma camera scintigraphy of bacterial abscesses in goats; format: in vivo; details: goat; for abscess visibility by gamma camera, adjoining bacterial abscesses of 2 months and three days old: about 1 mCi, imaged the next day
# Method: Bacterial abscesses were also evoked in goats in accordance with the following procedure: 4 Droppings (faeces) of goats were stirred in 10 ml phosphate-buffered, saline solution (pH 7.2), emulsified in 10 ml mineral oil (Freund's complete adjuvant), and injected subcutaneously into four goats (2.5 ml per goat) at the left flank of the abdomen. Within a day the goats developed fever (temperature rose from 39.3° to over 40° C.) and a firm abscess with a diameter of about 10 cm. appeared.
# In order to prepare granulocyte suspensions blood was sampled from a goat via the neck vein, and anticoagulated by the addition of heparin. The granulocytes were purified by a known sedimentation technique. The separation fluid consisted of: 10 Parts of Isopaque (sodium metrizoate) (32.8%) mixed with 24 parts Ficoll (Pharmacia) 8% (in H2 O). The density was: 1.077 g/ml. Equal parts of anticoagulated blood and 0.9% NaCl were mixed and 20 ml of the mixture was layered over 10 ml of Isopaque-Ficoll in a centrifuge tube. The mixture was centrifuged at 1000 g for 15 minutes. After centrifugation the mononuclear cells (monocytes and lymphocytes) were found as a narrow band at the interface between the plasma layer and the separation fluid. The layer above the erythrocyte sediment, also containing granulocytes, was removed down to 1 to 2 mm above the erythrocyte meniscus. The erythrocyte layer was mixed with a 3 to 5 fold volume of phosphate-buffered saline solution and centrifuged for 7 minutes at 1200 g. The supernatant was pipetted-off down to the erythrocyte meniscus. The erythrocytes were lysed by addition of 30 ml 155 mM NH4 Cl solution (also containing 10 mM KHCO3 0.1 mM EDTA) pH 7.4, mixing and 15 minutes storage at 4° C. After centrifugation (400 g) the granulocytes were resuspended in NH4 Cl solution (15 ml) 0.5% albumin and stored 15 minutes at 4° C. After microscopic control the cells were washed in PBS containing 0.5% albumin and were consecutively suspended in 5 ml PBS containing 0.5% albumin. In that condition the cells are ready for indium-111-oxinate labeling.
# Indium-111-oxinate labeled granulocytes were made by the Thakur procedure. In this preparation 2×50 ml conical centrifuge tubes are sterilized at 120° C. for 2 hours. In-111 Cl3 (Byk-Mallinckrodt CIL B.V.) 0.1 M HCl solution (5 mCi/ml) is used. 1 ml H2 O is added for injection, as are 50 μl oxine (BDH or Merck) solution (1 mg/ml in ethanol), and 200 μl acetate buffer 0.3 M pH 5.6 after a short wait of about a minute. The In-111-oxinate is extracted into about 2 ml CHCl3, and is evaporated to dryness by heating in a water bath. The material is dissolved in 100 μl absolute ethanol and again evaporated and dissolved in 50 μl absolute ethanol. […]
# [3] = intravenous, two days after the injection
structure (smiles),measurement,setting,value
[Cl][111In]([Cl])[Cl] [In-111-chloride],accumulation of In-111 in the cell fraction of the blood (tissue distribution study),[1],only a small amount of In-111 accumulated in the blood cells
same,radioactivity in pus of the old and new abscesses,[1],hardly any radioactivity
same,radioactivity in the kidney,[1]; 2 days after injection,strongly labeled
same,radioactivity of inflamed lymph node relative to a non-inflamed one,[1]; 2 days after injection,three
same,"accumulation of In-111 in fat, urine and gall",[1]; [3],no significant accumulation of In-111
same,accumulation of radioactivity in intraperitoneally penetrated part of the abscess,[1]; [3],"slightly higher accumulation of radioactivity, but the accumulation was less than in the old abscess in the In-111-oxinate study"
same,accumulation of radioactivity in the spleen and liver,[1]; [3],moderate accumulations of radioactivity
same,distribution of blood radioactivity between plasma and cells,[1]; [3],"Most of the radioactivity was in the plasma, not in the cells"
same,labeling of the blood,[1]; [3],very moderately labeled
same,radioactivity in tissue of old and new abscesses,[1]; [3],"moderate radioactivity, somewhat more than lymph node and muscle, far less than ovarium, uterus, lung and kidney"
same,binding of radioactivity to blood cells on washing with PBS,blood cells,could be easily washed out; also recorded: could be washed out by PBS
same,"clearance of indium from blood, four days","[2]; goat, intravenous",almost disappeared in four days
same,"clearance of indium from blood, level within two days","[2]; goat, intravenous",decline to a very low level of radioactivity within two days
same,"abscess visibility by gamma camera, adjoining bacterial abscesses of 2 months and three days old",bacterial abscesses,well-visible spot
same,"abscess visibility by gamma camera, bacterial abscesses of 2 months and three days old, subcutaneous injection","bacterial abscesses; ca. 1 mCi, accidental subcutaneous injection, twenty-four hours later","distinct, well-visible spot"
same,spread of radioactivity after subcutaneous injection,"bacterial abscesses; ca. 1 mCi, subcutaneous","spread via the peripheral vascular system, not via the neck vein to the heart and the lungs"
[111In+3].[O-]c1cccc2cccnc12.[O-]c1cccc2cccnc12.[O-]c1cccc2cccnc12 [In-111-oxinate],accumulation of In-111 in the cell fraction of the blood (tissue distribution study),[1],"strong accumulation of In-111 in the cell fraction of the blood, almost as much as the radioactivity per gram of tissue of the spleen"
same,"accumulation of radioactivity in fat, muscle, marrow from the femur, gall, faeces, pancreas and urine",[1],no significant accumulation of radioactivity
same,accumulation of radioactivity in heart muscle,[1],moderate accumulation of In-111
same,radioactivity in pus of the old and new abscesses,[1],little radioactivity
same,accumulation of In-111 in tissue of the old abscess,[1]; 2 months old abscess,"high accumulation of In-111, similar to the kidney and ovarium"
same,radioactivity of inflamed lymph node relative to a non-inflamed one,[1]; 2 days after injection,two
same,radioactivity accumulation in tissue of the new abscess,[1]; three days old abscess,"moderate radioactivity accumulation more than, for example, the lymph node and muscles, but far less than ovarium, uterus, lung, kidney, spleen and blood"
same,binding of radioactivity to blood cells on washing with PBS,blood cells,firmly bound
same,course of radioactivity in blood after injection (another goat),[2]; another goat,gradual decrease of radioactivity immediately after the goat was injected
same,preference of the cells for the agent (another experiment in another goat),[2]; another goat,strong preference of the cells
same,preference of indium-111 for white cells,"[2]; another goat, sample had about an equal amount of plasma",no preference of indium-111 for white cells
same,time of optimal accumulation in the cell fraction of the blood,"[2]; goat, after injection",five
same,In-111 activity level in blood after two days,"[2]; goat, intravenous",very slow decline of the activity level
same,"In-111 level in the blood, first two days","[2]; goat, intravenous",gradual increase of In-111 in the blood for two days
same,radioactivity in the blood one week later,"[2]; goat, intravenous",still a significant amount of radioactivity in the blood
same,preference of In-111 for the cell fraction of the blood,"[2]; goat, intravenous, clearance study",clear preference of In-111 to accumulate in the cell fraction of the blood
same,"abscess visibility by gamma camera, adjoining bacterial abscesses of 2 months and three days old",bacterial abscesses,clear spot
